Patent US20210163567A1, “Method of Delivering a Centrally-Acting Peptide Derivative, and Method of Treating a Neuropsychiatric Disorder” (TOKYO UNIVERSITY OF SCIENCE FOUNDATION, priority 2014, published 2021)
Values joined by “and” are separate entries in the source; they are usually repeats but may differ in a detail not shown here. Equal entries are not always repeated. Ends that are not written are not given here.

How the values were obtained:
[1] = tested on: learning disorder-induced mouse; assay: Y-maze test on learning disorder-induced (LPS) mouse; assay type: in vivo; settings: for Learning ability in Y-maze test: LPS-administered mice, Examples 6 and 7
Experimental: The learning disorder-alleviating activity of the GLP-1 derivative was evaluated by a Y-maze test on a learning disorder-induced mouse, using the FOS 12 solution of GLP-1 derivative.
As the learning disorder-induced mouse, ddY mice (5-7 week old, male, n=5) were administered with lipopolysaccharide (LPS) by 10 μg at three days before the test. Fifteen minutes before the administration of LPS, the mice were administered with GLP-1 derivative by 3 μg with the FOS 12 solution of GLP-1 derivative.
The Y-maze test was performed by using a device having three arms of the same size. The number of times that the mouse entered the different arm for consecutive three times was counted, and the result was divided by a number obtained by deducting 2 from the total number of times of entering the arm. The result was multiplied by 100, and used as a spontaneous alternation behavior (%).
(§1) As a control, mice (5-7 week old, male, n=5 or 7), intranasally administered a solvent without GLP-1 derivative by 4 μL 15 minutes before the administration of LPS, were subjected to the same test as the above. Further, mice that were not administered with LPS (vehicle) were subjected to the same test as the above. The error bar represents mean±SE (n=5 or 7), and the statistical processing was performed by Mann-Whitney test (*P<0.05, **P<0.01).
As the learning disorder-induced mouse, ddY mice (5-7 week old, male, n=6) administered with lipopolysaccharide (LPS) by 10 μg three days before the test were used. Fifteen minutes before the administration of LPS, the mice were administered with NmU derivative by 3 μg with the FOS 12 solution of NmU derivative. A Y-maze test was performed in the same manner as Example 6, and a spontaneous alternation behavior (%) was calculated from the measurement results.
as §1, with “n=6), which were” for “n=5 or 7),”, “NmU” for “GLP-1”, “mice” for “mice that were”, “(n=6),” for “(n=5 or 7),”, “(*P<0.01, **P<0.001).” for “(*P<0.05, **P<0.01).”

depression model mouse = assay: Forced-swim test on ACTH-induced treatment-resistant depression model mouse; assay type: in vivo; settings: Example 5, treatment-resistive depression model
Experimental: The anti-depression activity of the GLP-2 derivative was evaluated by a forced-swim test on a depression model […] using the DMSO solution of GLP-2 derivative as prepared in Example 3.
As the depression model mouse, ddY mice (5-7 week old, male, n=11) were administered with adrenocorticotropic hormone (ACTH) to induce an enhanced state of hypothalamic-pituitary-adrenal axis (HPA system). The administration of ACTH was performed by 0.45 mg/kg/day for consecutive 14 days.
The forced-swim test was performed in the same manner as Example 3 and the immobility time (s) was measured. The mice were intranasally administered with GLP-2 derivative by 3.6 μg as a DMSO solution of GLP-2 derivative, each day for consecutive 6 days until the day for the test. As a control, mice (5-7 week old, male, n=11) were administered with a solvent without GLP-2 derivative by 4 μL each day for consecutive 6 days and subjected to a forced-swim test in the same manner. The error bar represents mean±SE (n=11), and the statistical processing was performed by Mann-Whitney test (*P<0.01).

ddY mice [2] = assay: Tail suspension test on a mouse; assay type: in vivo; settings: Example 4, mouse tail suspension test
Experimental: The anti-depression activity of the GLP-2 derivative was evaluated by a tail suspension test on a mouse, using the DMSO solution of GLP-2 derivative as prepared in Example 3. The test was performed by the following process.
On the day before the test and on the day for the test, ddY mice (5-7 week old, male, n=9) were administered with the GLP-derivative by 3.6 μg, respectively, with the DMSO solution. Then, the mice were suspended by the tail and the immobility time (s) was measured. As a control, mice (5-7 week old, male, n=9) were intranasally administered with a solvent without GLP-2 derivative and subjected to a tail suspension test in the same manner. The error bar represents mean±SE (n=9), and the statistical processing was performed by Mann-Whitney test (*P<0.05).

ddY mice [3] = assay: Forced-swim test on a mouse; assay type: in vivo; settings: Example 3, mouse forced-swim test
Experimental: The anti-depression activity of the GLP-2 derivative was evaluated by a forced-swim test on a mouse. The test was performed by the following process.
Twenty-four hours before the test, ddY mice (5-7 week old, male, n=12) were subjected to a preliminary swimming for 15 minutes. The mice were administered GLP-2 derivative by 3.6 μg with the DMSO solution, on the day before the test and on the day for the test, respectively. Then, the test was performed in the same manner as Example 1, and the immobility time (s) was measured. As a control, mice (5-7 week old, male, n=12) were administered with a solution without GLP-2 derivative were subjected to a forced-swim test in the same manner. The error bar represents mean±SE (n=12), and the statistical processing was performed by Mann-Whitney test (*P<0.05).

rats = assay: Forced-swim test on rats (anti-depression activity); assay type: in vivo, rat; settings: intranasal 18 μg/day
Experimental: The anti-depression activity of the GLP-2 derivative was evaluated by a forced-swim test on rats using the DMSO solution of GLP-2 derivative. The forced-swim test was performed in accordance with the following procedure.
One hour before the test, rats (8-10 week old, male, n=6) were transferred to the laboratory for habituation. The rats were intranasally administered with the DMSO solution of GLP-2 derivative by 18 μg/day for two days, 30 minutes before the test. The rats were allowed to swim for 15 minutes, one by one in a transparent plastic cylinder with a diameter of 18 cm and a height of 50 cm filled with water of 25±1° C. to a height of 30 cm. During the swimming, the immobility time (s) was measured. The rats after the test were wiped with a Kimtowel and placed back to a cage. The test was performed for consecutive 2 days, day 1 as a preliminary test and day 2 as a main test. As a control, rats (8-10 week old, male, n=6) were intranasally administered with a solvent without GLP-2 derivative by 10 μL and subjected to a forced-swim test in the same manner. The error bar represents mean±SE (n=6), and the statistical processing was performed by Mann-Whitney test (*P<0.05). […]

FFFFG-(R)8-(G)2-YKVNEYQGPVAPSGGFFLFRPRN-NH2 (not fully specified (N-terminus)) [NmU derivative, derivative of neuromedin U with PAS (FFFFG), octa-arginine and GG spacer]
Alternation behavior (%) ([1]; Example 7: LPS 10 μg three days before test, NmU derivative 3 μg 15 minutes before LPS, individual animals n=6): 58.6% and 72.4% and 66.7% and 60.0% and 74.1% and 69.4% | Alternation behavior (%) ([1]; Example 7: Vehicle (mice not administered LPS), NmU derivative 3 μg, individual animals n=6): 65.9% and 70.5% and 69.0% and 63.9% and 67.8% and 78.8%

FFLIPKG-(R)8-(G)2-HAEGTFTSDVSSYLEGQAAKEFIAWLVKGR-NH2 [GLP-1 derivative]
Alternation behavior (%) ([1]; Example 6: LPS 10 μg three days before test, GLP-1 derivative 3 μg 15 minutes before LPS, individual animals n=5): 64.3% and 66.7% (2×) and 67.9% and 67.4% | Alternation behavior (%) ([1]; Example 6: Vehicle (mice not administered LPS), GLP-1 derivative 3 μg, individual animals n=5): 56.4% and 72.2% and 70.3% and 78.6% and 67.6%

HADGSFSDEMNTILDNLAARDFINWLIQTKITD [GLP-2]
Effect of suppressing depression (depression model mouse): an effect of suppressing depression is obtained | Effect of suppressing depression (ddY mice [2]): an effect of suppressing depression is obtained | Effect of suppressing depression (ddY mice [3]): an effect of suppressing depression is obtained | Immobility time (rats; Comparative Example 1: GLP-2 alone, individual animals n=6): 46 s and 15 s and 45 s and 41 s and 30 s and 33 s | Immobility time / anti-depression activity versus control group (rats; Mann-Whitney test): no significant difference in the anti-depression activity

HAEGTFTSDVSSYLEGQAAKEFIAWLVKGR-NH2 [GLP-1, glucagon-like peptide-1; label printed in b156 where the GLP-1 derivative is probably meant, reference compound]
Learning ability in Y-maze test [1]: learning ability is significantly ameliorated

YKVNEYQGPVAPSGGFFLFRPRN-NH2 [NmU, neuromedin U; label printed in b156 where the NmU derivative is probably meant, reference compound]
Learning ability in Y-maze test [1]: learning ability is significantly ameliorated
